Measurements reported in patent US8557859B2, “Immunomodulatory compositions” (Summit (Wales) Limited, priority 2003, dated 2013).

How the values were obtained:
[1] = system: α-D-glucosidase; test: Glycosidase inhibition, α-D-glucosidase (Bacillus); type: biochemical, Bacillus stearothermophilus; conditions: 1 mg/ml
Description: (§1) All enzymes were purchased from Sigma, as were the appropriate p-nitrophenyl substrates. Assays were carried out in microtitre plates. Enzymes were assayed in 0.1 M citric acid/0.2M di-sodium hydrogen phosphate (McIlvaine) buffers at the optimum pH for the enzyme. All assays were carried out at 20° C. For screening assays the incubation assay consisted of 10 μl of enzyme solution, 10 μl of inhibitor solution (made up in water) and 50 μl of the appropriate 5 mM p-nitrophenyl substrate (3.57 mM final conc.) made up in McIlvaine buffer at the optimum pH for the enzyme.
(§2) The reactions were stopped with 0.4M glycine (pH 10.4) during the exponential phase of the reaction, which was determined at the beginning of the assay using blanks with water, which were incubated for a range of time periods to measure the reaction rate using 5 mM substrate solution. Endpoint absorbances were read at 405 nm with a Biorad microtitre plate reader (Benchmark). Water was substituted for the inhibitors in the blanks.

[2] = system: β-D-galactosidase; test: Glycosidase inhibition, β-D-galactosidase; type: biochemical, Bovine liver; conditions: 1 mg/ml; second galactosidase line
Description: as §1, §2

[3] = system: Naringinase; test: Glycosidase inhibition, Naringinase; type: biochemical, Penecillium decumbens; conditions: 1 mg/ml
Description: as §1, §2

[4] = system: N-acetyl-β-D-glucosaminidase; test: Glycosidase inhibition, N-acetyl-β-D-glucosaminidase; type: biochemical, Bovine kidney; conditions: 1 mg/ml
Description: as §1, §2

[5] = molecular target: T1, rabbit small intestine sucrase (Oryctolagus cuniculus, UniProt P07768); test: Inhibition of rabbit small intestine sucrase; type: biochemical; conditions: at a concentration of 700 μM
T1 construct: from tissue; host or cells: rabbit small intestine

[6] = system: HSV-1 (SC16); test: Treatment of murine HSV-1 infection: ear pinna thickness; type: in vivo, BALB/c mice; conditions: result in words; casuarine at both doses (15 and 150 mg/kg i.p.); famciclovir via drinking water 1 mg/ml
[7] = Treatment of murine HSV-1 infection: body weight; type: in vivo, BALB/c mice
[8] = system: Na^+-dependent D-glucose uptake into ovine intestinal brush border membrane vesicles; test: Effect on glucose transport (competition assay with labelled D-glucose); type: biochemical
[9] = Group 1: 15 mg/kg i.p. daily, day 0
[10] = Group 1: 15 mg/kg i.p. daily, day 1
[11] = Group 1: 15 mg/kg i.p. daily, day 2
[12] = Group 1: 15 mg/kg i.p. daily, day 3
[13] = Group 1: 15 mg/kg i.p. daily, day 4
[14] = Group 1: 15 mg/kg i.p. daily, day 5
[15] = Group 1: 15 mg/kg i.p. daily, day 6
[16] = Group 1: 15 mg/kg i.p. daily, day 7
[17] = Group 1: 15 mg/kg i.p. daily, day 8
[18] = Group 1: 15 mg/kg i.p. daily, day −2
[19] = Group 2: 150 mg/kg i.p. daily, day 0
[20] = Group 2: 150 mg/kg i.p. daily, day 1
[21] = Group 2: 150 mg/kg i.p. daily, day 2
[22] = Group 2: 150 mg/kg i.p. daily, day 3
[23] = Group 2: 150 mg/kg i.p. daily, day 4
[24] = Group 2: 150 mg/kg i.p. daily, day 5
[25] = Group 2: 150 mg/kg i.p. daily, day 6
[26] = Group 2: 150 mg/kg i.p. daily, day 7
[27] = Group 2: 150 mg/kg i.p. daily, day 8
[28] = Group 2: 150 mg/kg i.p. daily, day −2

T1 sequence (P07768 whole entry): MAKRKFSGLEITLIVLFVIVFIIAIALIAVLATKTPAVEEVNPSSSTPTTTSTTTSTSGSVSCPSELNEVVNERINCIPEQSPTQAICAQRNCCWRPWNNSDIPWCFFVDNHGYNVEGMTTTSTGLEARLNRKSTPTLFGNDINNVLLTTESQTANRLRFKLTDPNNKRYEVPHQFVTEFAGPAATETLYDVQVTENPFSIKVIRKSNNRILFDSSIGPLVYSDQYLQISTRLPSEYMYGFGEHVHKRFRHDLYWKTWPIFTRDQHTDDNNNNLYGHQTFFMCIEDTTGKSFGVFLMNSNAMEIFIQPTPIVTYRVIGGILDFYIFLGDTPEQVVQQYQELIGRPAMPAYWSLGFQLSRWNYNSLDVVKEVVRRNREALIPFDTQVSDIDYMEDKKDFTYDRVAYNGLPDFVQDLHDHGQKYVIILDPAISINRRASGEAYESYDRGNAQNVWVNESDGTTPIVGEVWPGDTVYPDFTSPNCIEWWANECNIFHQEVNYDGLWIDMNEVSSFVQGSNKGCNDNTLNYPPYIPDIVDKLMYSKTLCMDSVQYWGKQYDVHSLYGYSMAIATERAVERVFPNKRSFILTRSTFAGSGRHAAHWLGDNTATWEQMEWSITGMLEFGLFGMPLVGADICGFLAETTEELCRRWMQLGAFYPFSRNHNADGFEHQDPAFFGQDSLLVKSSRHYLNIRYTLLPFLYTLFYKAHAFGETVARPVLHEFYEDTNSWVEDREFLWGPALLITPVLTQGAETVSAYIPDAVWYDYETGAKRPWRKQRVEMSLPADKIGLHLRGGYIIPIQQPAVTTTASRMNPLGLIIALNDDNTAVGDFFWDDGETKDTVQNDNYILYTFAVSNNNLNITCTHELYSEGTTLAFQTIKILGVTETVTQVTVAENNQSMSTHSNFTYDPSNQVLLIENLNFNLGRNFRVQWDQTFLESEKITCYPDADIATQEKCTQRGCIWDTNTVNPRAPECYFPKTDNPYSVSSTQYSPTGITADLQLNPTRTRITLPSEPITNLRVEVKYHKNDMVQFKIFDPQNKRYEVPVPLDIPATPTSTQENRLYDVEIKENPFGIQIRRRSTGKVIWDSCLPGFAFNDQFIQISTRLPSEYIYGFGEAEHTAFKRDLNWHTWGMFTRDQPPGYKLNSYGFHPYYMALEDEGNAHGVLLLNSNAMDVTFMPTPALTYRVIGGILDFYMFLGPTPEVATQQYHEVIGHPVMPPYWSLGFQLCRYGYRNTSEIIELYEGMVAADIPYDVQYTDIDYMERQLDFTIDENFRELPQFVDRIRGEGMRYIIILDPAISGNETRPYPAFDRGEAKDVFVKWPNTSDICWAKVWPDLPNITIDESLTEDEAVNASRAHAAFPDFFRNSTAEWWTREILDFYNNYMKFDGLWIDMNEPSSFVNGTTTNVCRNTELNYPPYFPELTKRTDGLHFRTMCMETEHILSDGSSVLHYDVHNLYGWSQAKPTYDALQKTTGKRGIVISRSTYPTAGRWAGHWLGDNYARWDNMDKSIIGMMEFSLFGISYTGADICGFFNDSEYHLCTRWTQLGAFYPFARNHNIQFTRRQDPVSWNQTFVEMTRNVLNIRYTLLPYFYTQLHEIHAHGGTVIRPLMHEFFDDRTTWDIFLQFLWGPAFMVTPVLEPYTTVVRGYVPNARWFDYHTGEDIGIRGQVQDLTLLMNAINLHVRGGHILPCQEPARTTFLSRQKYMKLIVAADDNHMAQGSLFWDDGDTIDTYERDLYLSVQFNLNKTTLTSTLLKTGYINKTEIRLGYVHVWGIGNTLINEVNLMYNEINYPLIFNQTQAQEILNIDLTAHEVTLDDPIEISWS

OC[C@@H]1[C@@H](O)[C@H](O)[C@H]2[C@H](O)[C@@H](O)CN21 [casuarine (8), (1R,2R,3R,6S,7S,7aR)-3-(hydroxymethyl)-1,2,6,7-tetrahydroxypyrrolizidine]
% inhibition gluc (Bacillus) [1]: 86%
% inhibition galactosidase [2]: 0%
% inhibition Naringinase [3]: −2%
% inhibition N-acetyl-β-gluc [4]: 14%
inhibition of rabbit small intestine sucrase [5]: inhibited
ear thickness response [6]: produced a reduction in ear thickness
Group mean weight [7, 9]: 16.7 g
Weight (% change) [7, 9]: 3.1%
Group mean weight [7, 10]: 17.1 g
Weight (% change) [7, 10]: 5.6%
Group mean weight [7, 11]: 17.1 g
Weight (% change) [7, 11]: 5.6%
Group mean weight [7, 12]: 17.6 g
Weight (% change) [7, 12]: 8.6%
Group mean weight [7, 13]: 17.4 g
Weight (% change) [7, 13]: 7.4%
Group mean weight [7, 14]: 17.6 g
Weight (% change) [7, 14]: 8.6%
Group mean weight [7, 15]: 17.7 g
Weight (% change) [7, 15]: 9.2%
Group mean weight [7, 16]: 17.4 g
Weight (% change) [7, 16]: 7.4%
Group mean weight [7, 17]: 17.7 g
Weight (% change) [7, 17]: 9.3%
Group mean weight [7, 18]: 16.2 g
Weight (% change) [7, 18]: 0%
Group mean weight [7, 19]: 16 g
Weight (% change) [7, 19]: 3.2%
Group mean weight [7, 20]: 16.4 g
Weight (% change) [7, 20]: 5.8%
Group mean weight [7, 21]: 16.3 g
Weight (% change) [7, 21]: 5.2%
Group mean weight [7, 22]: 16.6 g
Weight (% change) [7, 22]: 7.1%
Group mean weight [7, 23]: 16.4 g
Weight (% change) [7, 23]: 5.8%
Group mean weight [7, 24]: 16.8 g
Weight (% change) [7, 24]: 8.4%
Group mean weight [7, 25]: 17 g
Weight (% change) [7, 25]: 9.7%
Group mean weight [7, 26]: 16.7 g
Weight (% change) [7, 26]: 7.7%
Group mean weight [7, 27]: 16.8 g
Weight (% change) [7, 27]: 8.4%
Group mean weight [7, 28]: 15.5 g
Weight (% change) [7, 28]: 0%
Glucose uptake ([8]; initial rate, control 240): 265 pmol/s/mg
glucose transport ([8]; result in words): slightly stimulated
